In PubChem BioAssay (NCI) one finds GI50 and TGI data, which are given here for 17 compounds.

What all share (assay): NCI tumour cell line growth inhibition, 48 h
In assay [1] the test system is CCRF-CEM leukemia.
Assay [2] has as its system EKVX NSCLC.
For assay [3], the system named is HL-60(TB) leukemia.
Assay [4] concerns MDA-MB-435.
The test system of assay [5] is OVCAR-3 ovarian.
Assay [6] deals with OVCAR-4 ovarian.
For assay [7], the system named is OVCAR-8 ovarian.
Assay [8] deals with SW-620 colon.
Assay [9] concerns UO-31 renal.
Assay [10] concerns SNB-19 CNS.

SMILES strings stand for the structures.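 How tested: cells in 96-well plates exposed to compound for 48 hours at five concentrations. Abbreviation: GI50, concentration required for 50% inhibition of growth. Definition used: TGI = concentration required for complete inhibition of growth.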

For `CCCC(C)c1cc(Cc2cc(Cl)cc(Cl)c2O)c(O)c(Cc2cc(Cl)cc(Cl)c2O)c1` (stereo not drawn), the GI50 is 0.432 µM in assay [1]; 1.96 µM in [2]; 1.1 µM in assay [3]; 2.31 µM in assay [4]; 1.71 µM in [5]; 2.02 µM in assay [6]. Also, the values for the GI50 in assay [7], in [8] and in [9] were 0.737 µM, 1.61 µM and 2.52 µM, respectively. Besides, the TGI in assay [1] is 3.74 µM; in assay [2], 11 µM; in [3], 9.44 µM; in assay [4] it was 10.3 µM; in assay [5], 12.7 µM; in assay [6] it was 13.7 µM. For the same compound, the values for the TGI in assay [7], in [8] and in assay [9] were 14.6 µM, 12.7 µM and 10.2 µM, respectively.

In the case of `COc1ccc(-c2nn3c(-c4cc(F)c(Cl)cc4Cl)nnc3s2)cc1`, the GI50 in [1] is 28.8 µM; in [2], 34.1 µM; in [3], 15.6 µM; in [4], 4.86 µM; in assay [5], 20.4 µM; in assay [6], 23.5 µM. The GI50 in assay [7] is 22 µM; in [10] it was 39.4 µM; in assay [8], 24.6 µM; in assay [9] it was 18.3 µM. Besides, the TGI was above 100 µM in assay [1]; above 100 µM in [2]; 43.9 µM in assay [3]; above 100 µM in [4]; 66.7 µM in assay [5]; 87.4 µM in [6]. Also, the TGI in assay [7] is 62.1 µM; in assay [10] it was above 100 µM; in assay [8], above 100 µM; in assay [9], above 100 µM.

As for `O=C(NCCO)Nc1ccc(-c2nc(N3CCOCC3)c3cccn3n2)cc1`, the GI50 in assay [1] is 2.98 µM; in assay [2], 0.183 µM; in assay [3] it was 2.21 µM; in assay [4], 0.188 µM; in assay [5] it was 0.17 µM; in assay [6], 0.0892 µM. In addition, the GI50 in [7] was 0.257 µM; in assay [10], 2.14 µM; in assay [8], 1.65 µM; in [9] it was 0.0573 µM. Besides, the TGI in assay [1] is above 100 µM; in [2] it was 8.47 µM; in assay [3], above 100 µM; in assay [4], above 28.1 µM; in assay [5], 9.82 µM; in assay [6], 3.75 µM. For the same compound, the TGI in assay [7] was 21.1 µM; in assay [10], above 100 µM; in assay [8] it was above 100 µM; in [9], 1.63 µM.

On to `O=C(/C=C/c1ccccc1)c1cc(Br)ccc1O`, for which the TGI amounted to 33.9 µM in [1]; 27.6 µM in assay [2]; 25.7 µM in assay [3]; 32.6 µM in assay [4]; 43 µM in assay [5]; 30.3 µM in assay [6]. Moreover, the TGI was found to be 30.4 µM in assay [7], 35.8 µM in assay [10], 46.8 µM in assay [8] and 22.9 µM in [9].

For the compound `Cc1ccc(-c2cn3ccnc3c(-c3ccc(Cl)cc3)n2)cc1`, the GI50 in [1] is 0.122 µM; in assay [2], 0.543 µM; in [3], 0.0856 µM; in [4] it was below 0.0126 µM; in assay [5], 0.0412 µM; in assay [6], 14.7 µM. In addition, the values for the GI50 in assay [7], in assay [10] and in assay [8] were 1.43 µM, 1.39 µM and below 0.0217 µM, respectively. Besides, the TGI in [1] is above 100 µM; in assay [2], above 100 µM; in [3] it was above 100 µM; in assay [4], 0.185 µM; in assay [6], above 100 µM; in [7] it was 34.2 µM. The values for the TGI in assay [10], in assay [8] and in [9] were above 65.4 µM, above 61.2 µM and above 100 µM, respectively.

As for `CC[C@@H](C(=O)O)C1CC[C@H](C)C([C@@H](C)[C@H](O)[C@H](C)C(=O)[C@H](CC)C2O[C@]3(C=C[C@@H](O)[C@]4(CC[C@@](C)(C5CC[C@](O)(CC)[C@H](C)O5)O4)O3)[C@H](C)C[C@@H]2C)O1` (stereo partly drawn), the GI50 in [1] was 0.619 µM; in [2], 0.523 µM; in assay [3], 0.0406 µM; in assay [4], 1.04 µM; in assay [5], 0.0434 µM; in assay [6] it was 0.657 µM. Besides, the GI50 in [7] was 1.21 µM; in assay [10] it was 0.323 µM; in assay [8], 1.33 µM; in [9] it was 0.784 µM. The TGI was 20.5 µM in assay [1]; 22.5 µM in [2]; 0.347 µM in assay [3]; 2.77 µM in [4]; 16.4 µM in assay [5]; 33.7 µM in assay [6]. For the same compound, the TGI in [7] was found to be 37.4 µM; in [10], 3.65 µM; in [8], 8.93 µM; in assay [9], 15.9 µM.

As for `NCCn1c(=O)[nH]c(=O)[nH]c1=S`, the GI50 in assay [1], in [2], in assay [3], in assay [4], in assay [5] and in [6] was above 100 µM in each case. In addition, the GI50 in assay [7], in assay [10], in [8] and in assay [9] was above 100 µM each time. Besides, the TGI in [1], in assay [2], in assay [3], in [4], in [5] and in [6] was above 100 µM in each case. Moreover, the TGI in assay [7], in assay [10], in [8] and in [9] was above 100 µM in each case.

Consider `CN(C)CCCNC(CC#N)CCC#N` (stereo not drawn), for which the TGI in assay [1], in assay [2], in assay [3], in assay [4], in [5] and in assay [6] was above 10 µM throughout. The TGI in assay [7], in [10], in assay [8] and in [9] was above 10 µM throughout.

`CN(C)CCNc1c2c(c(NCCN(C)C)c3[nH]ccc13)C(=O)c1ccccc1C2=O`: the GI50 in assay [1] was 0.281 µM; in assay [2], 0.903 µM; in [3] it was 1.39 µM; in [4] it was 1.54 µM; in assay [5] it was 0.639 µM; in [6] it was 1.05 µM. Also, the GI50 is 0.532 µM in assay [7], 0.93 µM in assay [10], 0.385 µM in assay [8] and 2.28 µM in [9]. The TGI in assay [2] is 2.65 µM; in [4], 5.14 µM; in [5], 6.59 µM; in assay [6] it was 3.11 µM; in [7] it was 9.21 µM; in assay [10], 12.1 µM. For the same compound, the TGI in assay [8] is 2.97 µM; in [9], above 100 µM.

For `CC1OC(O[C@@H]2OC=C(C=O)[C@@]3(O)CC[C@H](C)[C@@H]23)C(O)C(O)C1O` (stereo partly drawn), the TGI in [1], in assay [2], in [3], in assay [4], in [5] and in assay [6] was above 100 µM each time. In addition, the TGI in assay [7], in assay [10], in assay [8] and in [9] was above 100 µM in each case.

Take `CCOC(=O)c1cc(NS(=O)(=O)c2ccccc2)cc(C(=O)OCC)c1`: the GI50 in assay [1], in [2], in assay [3], in assay [4], in assay [5] and in assay [6] was above 100 µM in each case. Further, the GI50 in [10], in assay [8] and in assay [9] was above 100 µM in each case. Moreover, the TGI in assay [1], in assay [2], in assay [3], in assay [4], in assay [5] and in [6] was above 100 µM throughout. Moreover, the TGI in [10], in assay [8] and in [9] was above 100 µM throughout.

In the case of `Cn1cccc1-c1cc(-c2cccs2)nc(N)c1C#N`, the GI50 in [1], in assay [2], in [3], in [4], in assay [5] and in assay [6] was above 100 µM in each case. Also, the GI50 in assay [7], in [10], in [8] and in [9] was above 100 µM in each case. Besides, the TGI in assay [1], in assay [2], in assay [3], in assay [4], in [5] and in assay [6] was above 100 µM each time. In addition, the TGI in assay [7], in assay [10], in assay [8] and in assay [9] was above 100 µM each time.

As for `COc1ccc2sc3c(NCCCN(C)C)nc4ccccc4c3c(=O)c2c1`, the GI50 in [1] is 1.57 µM; in [2], 1.51 µM; in [3], 1.88 µM; in assay [4] it was 1.59 µM; in [5] it was 1.78 µM; in assay [6], 1.8 µM. Also, the GI50 in [7] is 1.7 µM; in assay [10] it was 1.64 µM; in [8], 1.55 µM; in assay [9], 1.47 µM. Besides, the TGI is 3.67 µM in assay [1]; 2.93 µM in assay [2]; 3.91 µM in assay [3]; 2.98 µM in [4]; 3.27 µM in assay [5]; 3.82 µM in assay [6]. For the same compound, the TGI in [7] was 3.62 µM; in [10] it was 3.06 µM; in assay [8] it was 3.04 µM; in assay [9], 2.84 µM.

For `O=C1CC(c2ccc(O)cc2)C2(O1)C(=O)OC(C(O)CO)C2O` (stereo not drawn), the TGI in assay [1], in assay [2], in assay [3], in [4], in assay [5] and in assay [7] was above 100 µM throughout. Moreover, the TGI in assay [10], in assay [8] and in [9] was above 100 µM in each case.

As for `COc1ccc(-c2ccc(/C=N/n3c(COc4ccc(Cl)cc4Cl)nn(CN4CCOCC4)c3=S)o2)c([N+](=O)[O-])c1`, the GI50 in assay [1] is 16.2 µM; in assay [2] it was above 100 µM; in [3], 19.1 µM; in assay [4] it was 18.6 µM; in assay [5], 14.6 µM; in [6], 21.7 µM. The values for the GI50 in assay [10] and in assay [9] were 28.7 µM and 42.7 µM, respectively. Also, the TGI in assay [1] was 43.8 µM; in assay [2] it was above 100 µM; in assay [3], 41.1 µM; in assay [4] it was 51.5 µM; in assay [5], 37.9 µM; in assay [6], 78.8 µM. Further, the TGI in assay [10] and in [9] was above 100 µM in each case.

Consider `O=C(O)/C=C\C(=O)N1C/C(=C\c2ccccc2Cl)C(=O)/C(=C/c2ccccc2Cl)C1`, for which the GI50 in [1] is 1.43 µM; in [2], 5.24 µM; in [3], 3.37 µM; in assay [4], 3.34 µM; in assay [5] it was 2.4 µM; in assay [6], 3.37 µM. Moreover, the GI50 was 3.88 µM in assay [7], 1.98 µM in [10] and 1.98 µM in assay [9]. Besides, the TGI stood at 6.66 µM in [1]; 18.3 µM in assay [2]; 11.8 µM in assay [3]; 13.6 µM in assay [4]; 5.51 µM in assay [5]; 13.6 µM in assay [6]. Moreover, the TGI in [7] turned out to be 17 µM; in assay [10], 5.34 µM; in [9], 3.72 µM.

On to `C[C@@H]1C[C@H]2CC[C@H](O2)[C@H](C)C(=O)O[C@@H](C)C[C@@H]2CC[C@@H](O2)[C@@H](C)C(=O)O[C@H](C)C[C@H]2CC[C@H](O2)[C@H](C)C(=O)O[C@@H](C)C[C@@H]2CC[C@@H](O2)[C@@H](C)C(=O)O1`, for which the TGI in assay [1] was 16.2 µM; in assay [2], above 100 µM; in [3], 0.536 µM; in assay [4], above 49.3 µM; in assay [5], above 40.1 µM; in [7] it was above 44.6 µM. In addition, the TGI in [10] and in assay [8] was above 100 µM each time.
